Measured values as given in US20240409536A1, “COMPOUNDS AND METHODS FOR MODULATING SPLICING” (REMIX THERAPEUTICS INC., priority 2021, published 2024).
pIC50: −log10 of the molar value.

Key:
HTT mRNA = assay: Gene panel canonical junction qPCR assay, HTT CJ mRNA decrease; assay type: cell-based, human; settings: Homo sapiens, canonical junction qPCR, read-out: HTT IC50 (decrease in CJ mRNA levels)
Method in brief: (§1)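 A673 or K562 cells treated with compound; canonical exon-exon junction mRNA quantified by cDNA synthesis and RT-qPCR with junction-spanning primer/probe, normalized to GAPDH, GUSB or PPIA and DMSO (2^(−ΔΔCt)). Percent response from set ΔCt assay windows fitted to 4-parameter logistic; IC50 for CJ decrease.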

SMN2 mRNA = assay: Gene panel canonical junction qPCR assay, SMN2 CJ mRNA decrease; assay type: cell-based, human; settings: Homo sapiens, canonical junction qPCR, read-out: SMN2 IC50 (decrease in CJ mRNA levels)
Method in brief: as §1

K562 cells = assay: Cell Titer Glo 2.0 cell viability assay in K562 cells; settings: 72 hours
Target C mRNA = assay: Gene panel canonical junction qPCR assay, Target C CJ mRNA decrease; assay type: cell-based; settings: Homo sapiens, canonical junction qPCR, read-out: Target C IC50 (decrease in CJ mRNA levels)
Method in brief: as §1

Target C = assay: HiBiT protein abundance assay, Target C (K562 HiBiT knock-in cells); assay type: cell-based, human; settings: 24 hours
Method in brief: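 Protein abundance read by HiBiT lytic luminescence after 24 h compound exposure (37 °C) of knock-in K562 cells, 10000 cells/well in IMDM+1% FBS. Dosing: 10 points, 3-fold, top 10 μM final, ≤0.25% DMSO. Four-parameter logistic fit gave concentration reducing abundance to 50% of untreated control.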

MYB mRNA = assay: Gene panel canonical junction qPCR assay, MYB CJ mRNA decrease; assay type: cell-based, human; settings: Homo sapiens, canonical junction qPCR, read-out: MYB IC50 (decrease in CJ mRNA levels)
Method in brief: as §1

pIC50 (HTT mRNA)	pIC50 (SMN2 mRNA)	pIC50 (Target C mRNA)	pIC50 (Target C)	pIC50 (MYB mRNA)	SMILES	Viability (K562 cells)
5.00 to 6.00	> 7.00	< 5.00	< 5.00	6.00 to 7.00	Cc1cn2cc(NC(=O)c3ccc(N4C[C@@H](C)N[C@@H](C)C4)c4nccnc34)cc(C#N)c2n1 [Compound 294]	D (D represents greater than 10 μM in K562 cells)
5.00 to 6.00	> 7.00	< 5.00	< 5.00	> 7.00	Cc1cn2cc(NC(=O)c3ccc(N4C[C@@H](C)N[C@@H](C)C4)c4nccnc34)cc(Cl)c2n1 [Compound 304]	B (B represents 100-1000 nM)
< 5.00	> 7.00	< 5.00	5.00 to 6.00	6.00 to 7.00	C[C@@H]1CN(c2ccc(C(=O)Nc3cc(F)c4nc(Cl)cn4c3)c3nccnc23)C[C@H](C)N1 [Compound 306]	B (B represents 100-1000 nM)
< 5.00	> 7.00	< 5.00	5.00 to 6.00	6.00 to 7.00	Cc1cn2cc(NC(=O)c3ccc(N4CC[C@@H](N)C4)c4nccnc34)cc(F)c2n1 [Compound 315]	B (B represents 100-1000 nM)
< 5.00	> 7.00	< 5.00	< 5.00	6.00 to 7.00	Cc1cn2cc(NC(=O)c3ccc(NC4CCNC4)c4nccnc34)cc(F)c2n1 (stereo not drawn) [Compound 316]	B (B represents 100-1000 nM)
5.00 to 6.00	> 7.00	5.00 to 6.00	5.00 to 6.00	6.00 to 7.00	Cc1cn2cc(NC(=O)c3ccc(N4CCC5(CCN5)C4)c4nccnc34)cc(F)c2n1 (stereo not drawn) [Compound 339]	B (B represents 100-1000 nM)
5.00 to 6.00	> 7.00	5.00 to 6.00	5.00 to 6.00	6.00 to 7.00	Cc1cn2cc(NC(=O)c3ccc(N4CCNCC4)c4nncnc34)cc(F)c2n1 [Compound 345]	B (B represents 100-1000 nM)
5.00 to 6.00	6.00 to 7.00	< 5.00	5.00 to 6.00	5.00 to 6.00	Cc1cn2cc(NC(=O)c3ccc(N4CCC(N)(CF)CC4)c4nccnc34)cc(F)c2n1 [Compound 356]	C (C represents 1000-9999 nM)
< 5.00	6.00 to 7.00	< 5.00	< 5.00	< 5.00	COc1cn2cc(NC(=O)c3ccc(N4C[C@@H](C)N[C@@H](C)C4)c4nccnc34)cc(F)c2n1 [Compound 357]	C (C represents 1000-9999 nM)
< 5.00	5.00 to 6.00	< 5.00	< 5.00	< 5.00	C[C@@H]1CN(c2ccc(C(=O)Nc3cc(F)c4nc(O)cn4c3)c3nccnc23)C[C@H](C)N1 [Compound 360]	D (D represents greater than 10 μM in K562 cells)
5.00 to 6.00	> 7.00	5.00 to 6.00	5.00 to 6.00	6.00 to 7.00	Cc1cn2cc(NC(=O)c3ccc(N4CCN[C@H](CO)C4)c4nccnc34)cc(F)c2n1 [Compound 362]	B (B represents 100-1000 nM)
5.00 to 6.00	> 7.00	5.00 to 6.00	5.00 to 6.00	6.00 to 7.00	Cc1cn2cc(NC(=O)c3ccc(N4CCNC5(CCC5)C4)c4nccnc34)cc(F)c2n1 [Compound 363]	A (A represents <100 nM)
6.00 to 7.00	> 7.00	5.00 to 6.00	5.00 to 6.00	6.00 to 7.00	Cc1cn2cc(NC(=O)c3ccc(N4CCN(C)C5(CC5)C4)c4nccnc34)cc(F)c2n1 [Compound 364]	B (B represents 100-1000 nM)
6.00 to 7.00	> 7.00	5.00 to 6.00	5.00 to 6.00	6.00 to 7.00	CCN1CCN(c2ccc(C(=O)Nc3cc(F)c4nc(C)cn4c3)c3nccnc23)CC12CC2 [Compound 365]	B (B represents 100-1000 nM)
5.00 to 6.00	> 7.00	5.00 to 6.00	5.00 to 6.00	6.00 to 7.00	Cc1cn2cc(NC(=O)c3ccc(N4CCN[C@H](CF)C4)c4nccnc34)cc(F)c2n1 [Compound 366]	C (C represents 1000-9999 nM)

Further lines, the compound ahead of its results:

SMILES	pIC50 (HTT mRNA)	pIC50 (SMN2 mRNA)	pIC50 (Target C mRNA)	pIC50 (Target C)	pIC50 (MYB mRNA)	Viability (K562 cells)
CCOc1cnc2c(N3C[C@@H](C)N[C@@H](C)C3)ccc(C(=O)Nc3cc(F)c4nc(C)cn4c3)c2n1 [Compound 296]	6.00 to 7.00	> 7.00	5.00 to 6.00	6.00 to 7.00	> 7.00	B (B represents 100-1000 nM)
COc1nc(NC(=O)c2ccc(N3C[C@@H](C)N[C@@H](C)C3)c3nccnc23)cc2oc(C)nc12 [Compound 298]	< 5.00	> 7.00	< 5.00	5.00 to 6.00	6.00 to 7.00	C (C represents 1000-9999 nM)
Cc1cn2cc(NC(=O)c3ccc(N4C[C@@H](C)N[C@@H](C)C4)c4cncnc34)cc(F)c2n1 [Compound 302]	5.00 to 6.00	> 7.00	5.00 to 6.00	5.00 to 6.00	6.00 to 7.00	C (C represents 1000-9999 nM)
CNc1nc(NC(=O)c2ccc(N3C[C@@H](C)N[C@@H](C)C3)c3nccnc23)cn2cc(C)nc12 [Compound 308]	< 5.00	6.00 to 7.00	< 5.00	< 5.00	5.00 to 6.00	C (C represents 1000-9999 nM)
Cc1c(O)c(NC(=O)c2ccc(N3C[C@@H](C)N[C@@H](C)C3)c3nccnc23)cc2cn(C)nc12 [Compound 310]	< 5.00	> 7.00	< 5.00	< 5.00	6.00 to 7.00	C (C represents 1000-9999 nM)
Cc1cn2cc(NC(=O)c3ccc(N4C[C@@H](C)N[C@@H](C)C4)c4cccnc34)cc(F)c2n1 [Compound 340]	5.00 to 6.00	> 7.00	5.00 to 6.00	< 5.00	6.00 to 7.00	B (B represents 100-1000 nM)
Cc1cn2cc(NC(=O)c3ccc(N4CCNC5(CC5)C4)c4cccnc34)cc(F)c2n1 [Compound 341]	5.00 to 6.00	> 7.00	5.00 to 6.00	< 5.00	6.00 to 7.00	B (B represents 100-1000 nM)
COc1nc2c(F)cc(NC(=O)c3ccc(N4C[C@@H](C)N[C@@H](C)C4)c4nccnc34)cc2o1 [Compound 342]	< 5.00	6.00 to 7.00	< 5.00	< 5.00	< 5.00	C (C represents 1000-9999 nM)
C[C@@H]1CN(c2ccc(C(=O)Nc3cc(F)c4cnccc4c3)c3nccnc23)C[C@H](C)N1 [Compound 343]	5.00 to 6.00	6.00 to 7.00	5.00 to 6.00	5.00 to 6.00	5.00 to 6.00	C (C represents 1000-9999 nM)
C[C@@H]1CN(c2ccc(C(=O)Nc3cc(F)c4ncccc4c3)c3nccnc23)C[C@H](C)N1 [Compound 344]	< 5.00	6.00 to 7.00	< 5.00	< 5.00	5.00 to 6.00	C (C represents 1000-9999 nM)
Cc1cn2cc(NC(=O)c3ccc(N4C[C@@H](C)N[C@@H](C)C4)c4ncc(OC5CC5)nc34)cc(F)c2n1 [Compound 351]	5.00 to 6.00	> 7.00	5.00 to 6.00	< 5.00	6.00 to 7.00	B (B represents 100-1000 nM)
COc1nc(NC(=O)c2ccc(N3C[C@@H](C)N[C@@H](C)C3)c3nccnc23)cc2cn(C)nc12 [Compound 352]	5.00 to 6.00	> 7.00	5.00 to 6.00	5.00 to 6.00	6.00 to 7.00	B (B represents 100-1000 nM)
Cc1ccc2cc(NC(=O)c3ccc(N4C[C@@H](C)N[C@@H](C)C4)c4nccnc34)cc(F)c2n1 [Compound 353]	< 5.00	6.00 to 7.00	< 5.00	< 5.00	< 5.00	C (C represents 1000-9999 nM)
Cc1cn2nc(NC(=O)c3ccc(N4C[C@@H](C)N[C@@H](C)C4)c4nccnc34)cc2c(C)n1 [Compound 354]	6.00 to 7.00	6.00 to 7.00	6.00 to 7.00	6.00 to 7.00	6.00 to 7.00	B (B represents 100-1000 nM)
Cc1cn2cc(NC(=O)c3ccc(N4C[C@@H](C)N[C@@H](C)C4)c4ncccc34)cc(F)c2n1 [Compound 358]	< 5.00	< 5.00	< 5.00	< 5.00	< 5.00	D (D represents greater than 10 μM in K562 cells)
Cc1cn2cc(NC(=O)c3ccc(N4C[C@@H](C)N[C@@H](C)C4)c4nccnc34)nc2c(C)n1 [Compound 359]	< 5.00	> 7.00	< 5.00	< 5.00	6.00 to 7.00	B (B represents 100-1000 nM)
